According to ChEMBL document CHEMBL1201862, “PubChem BioAssay data set” (2004):
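Five compound concentrations were applied to cells in 96-well plates for 48 hours; endpoints were derived by simple linear interpolation of the resulting dose-response curve. Abbreviation: GI50, concentration required for 50% inhibition of growth.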 Active and inactive are the calls of the source. Cut-off read from the data, not from the text of the source: active = GI50 up to about 1.1 µM and inactive = higher.

Columns and labels:
Test in all cases: NCI tumour cell line growth inhibition, 48 h
[1] = test system: ACHN
[2] = test system: RXF 393
[3] = test system: OVCAR-3
[4] = test system: NCI-H23
[5] = test system: SF-295
[6] = test system: A498
[7] = test system: SK-MEL-5
[8] = test system: K562
[9] = test system: LOX IMVI
[10] = test system: OVCAR-8
[11] = test system: HL-60
[12] = test system: HOP-62
[13] = test system: SK-MEL-28
[14] = test system: HCT-116
[15] = test system: EKVX
[16] = test system: CAKI-1
[17] = test system: MDA-MB-435
[18] = test system: T47D
[19] = test system: PC-3

Row | Structure (SMILES) | GI50 [1] | GI50 [2] | GI50 [3] | GI50 [4] | GI50 [5] | GI50 [6] | GI50 [7] | GI50 [8] | GI50 [9] | GI50 [10] | GI50 [11] | GI50 [12] | GI50 [13] | GI50 [14] | GI50 [15] | GI50 [16] | GI50 [17] | GI50 [18] | GI50 [19]
1 | O=C1c2cccc3cccc(c23)C(=O)N1CCN(CCO)CCO | 23.9 µM (inactive) | 20.9 µM (inactive) | 33.8 µM (inactive) | 25.4 µM (inactive) | 47.4 µM (inactive) | 17.3 µM (inactive) | 17.2 µM (inactive) | 25.5 µM (inactive) | 18 µM (inactive) | 16.3 µM (inactive) | > 100 µM (inactive) | 31.7 µM (inactive) | 35.8 µM (inactive) | 16.9 µM (inactive) | 31.1 µM (inactive) | – | – | – | –
2 | CCOC(=O)C1=C(C)NC(=S)NC1c1ccccc1 (stereo not given) | > 100 µM (inactive) | > 66.2 µM (inactive) | > 100 µM (inactive) | > 100 µM (inactive) | > 100 µM (inactive) | > 100 µM (inactive) | > 83.9 µM (inactive) | 50 µM (inactive) | > 63.7 µM (inactive) | > 100 µM (inactive) | 71.8 µM (inactive) | > 100 µM (inactive) | > 100 µM (inactive) | > 59 µM (inactive) | > 100 µM (inactive) | > 20 µM (inactive) | – | – | –
3 | COc1ccc2[nH]c3c([N+](=O)[O-])ccc(NCCCN(C)C)c3/c(=N/CCCN(C)C)c2c1 | – | 0.631 µM (active) | – | 1.56 µM (inactive) | 1.63 µM (inactive) | – | 1.9 µM (inactive) | 1.42 µM (inactive) | 1.41 µM (inactive) | 0.893 µM (active) | 1.77 µM (inactive) | 1.4 µM (inactive) | 1.89 µM (inactive) | – | 2.55 µM (inactive) | 2.07 µM (inactive) | 7.62 µM (inactive) | > 10 µM (inactive) | 1.06 µM (active)
4 | O=S1(=O)N2CN3CN(C2)CN1C3 | 108 µM (inactive) | 56.9 µM (inactive) | > 10 µM (inactive) | 20.5 µM (inactive) | 23.8 µM (inactive) | 223 µM (inactive) | 32.4 µM (inactive) | > 31.6 µM (inactive) | 36.8 µM (inactive) | > 86.5 µM (inactive) | 23.1 µM (inactive) | 234 µM (inactive) | > 83.6 µM (inactive) | 21.6 µM (inactive) | 370 µM (inactive) | 205 µM (inactive) | – | – | –
5 | O=C(N[C@H]1CC2(C=C(I)C(=O)C(I)=C2)OC1=O)OCc1ccccc1 | 18.5 µM (inactive) | 15.2 µM (inactive) | 17.3 µM (inactive) | 17.8 µM (inactive) | 19.5 µM (inactive) | > 100 µM (inactive) | 27 µM (inactive) | 10.4 µM (inactive) | 16 µM (inactive) | 17.3 µM (inactive) | 3.93 µM (inactive) | 22.6 µM (inactive) | 18.5 µM (inactive) | 15.9 µM (inactive) | 14.3 µM (inactive) | 20.4 µM (inactive) | – | – | –
6 | COc1ccc(CN2C(=O)C(Cc3cc(OC)c(OC)c(C)c3OC)NC(=O)/C2=C/c2cc(OC)c(OC)c(C)c2OC)cc1 (stereo not given) | 31.7 µM (inactive) | 25.8 µM (inactive) | 26.1 µM (inactive) | 43.1 µM (inactive) | 43.5 µM (inactive) | 49.4 µM (inactive) | 18 µM (inactive) | 33 µM (inactive) | 41.8 µM (inactive) | 32.1 µM (inactive) | 18.3 µM (inactive) | 50.9 µM (inactive) | 59.8 µM (inactive) | 26.4 µM (inactive) | 48.1 µM (inactive) | – | – | – | –
7 | COC(=O)C1=CC2C=CC(C1C(=O)OC)C1C(C(=O)OC)=C(C(=O)OC)C(C(=O)OC)=C(C(=O)OC)C21OC (stereo not given) | > 100 µM (inactive) | > 100 µM (inactive) | > 100 µM (inactive) | > 100 µM (inactive) | > 100 µM (inactive) | > 100 µM (inactive) | > 100 µM (inactive) | – | > 100 µM (inactive) | > 100 µM (inactive) | > 100 µM (inactive) | > 100 µM (inactive) | > 100 µM (inactive) | > 100 µM (inactive) | > 100 µM (inactive) | > 100 µM (inactive) | – | – | –
8 | CCc1cccc(=O)c([O-])c1.CCc1cccc(=O)c([O-])c1.[Bi+3].[Cl-] | 8.17 µM (inactive) | 18.2 µM (inactive) | 5.92 µM (inactive) | 13.5 µM (inactive) | 6.31 µM (inactive) | 15 µM (inactive) | 13.1 µM (inactive) | 2.81 µM (inactive) | 7.53 µM (inactive) | 2.96 µM (inactive) | 2.54 µM (inactive) | 11.6 µM (inactive) | 5.14 µM (inactive) | 7.45 µM (inactive) | 13.8 µM (inactive) | 2.43 µM (inactive) | – | – | –
9 | CNC(=O)OCc1nccc2c(C)c3[nH]c4ccc(OC)cc4c3cc12 | 1.61 µM (inactive) | 3.16 µM (inactive) | 21.9 µM (inactive) | 4.74 µM (inactive) | 8.75 µM (inactive) | 6.7 µM (inactive) | 2.79 µM (inactive) | 2.7 µM (inactive) | 3.04 µM (inactive) | 3.1 µM (inactive) | 2.58 µM (inactive) | 3.69 µM (inactive) | 9.73 µM (inactive) | 1.95 µM (inactive) | 16.7 µM (inactive) | 19.1 µM (inactive) | – | – | –
10 | CN1C(=O)CCC2[C@@H]3CC=C4C[C@@H](O)CC[C@]4(C)C3CC[C@@]21C (stereo not given in full) | 42.4 µM (inactive) | 18.3 µM (inactive) | 49.5 µM (inactive) | 25.4 µM (inactive) | 27.2 µM (inactive) | > 100 µM (inactive) | 13.5 µM (inactive) | 21.3 µM (inactive) | – | 64.9 µM (inactive) | 11.5 µM (inactive) | 45.9 µM (inactive) | > 100 µM (inactive) | 33.5 µM (inactive) | 67.5 µM (inactive) | 50.2 µM (inactive) | – | – | –
11 | CCOc1ccccc1NC(=O)C1=C(C)NC(C)=C(C(=O)Nc2ccccc2OCC)C1c1ccc2c(c1)OCO2 | 36.8 µM (inactive) | 16.8 µM (inactive) | 17 µM (inactive) | 23.9 µM (inactive) | 21.2 µM (inactive) | 34.9 µM (inactive) | 11.1 µM (inactive) | 6.01 µM (inactive) | 34 µM (inactive) | 47.3 µM (inactive) | 10.7 µM (inactive) | 37.4 µM (inactive) | 35.2 µM (inactive) | – | 39.6 µM (inactive) | 21.5 µM (inactive) | – | – | –
12 | CCN(CC)CCCNc1nccc2c(C)c3[nH]c4ccncc4c(=O)c3cc12 | 1.8 µM (inactive) | 0.558 µM (active) | 1.8 µM (inactive) | 1.95 µM (inactive) | 3.64 µM (inactive) | 7.28 µM (inactive) | 3.57 µM (inactive) | 2.61 µM (inactive) | 0.975 µM (active) | 0.557 µM (active) | 2.79 µM (inactive) | 3.11 µM (inactive) | 3.27 µM (inactive) | 0.514 µM (active) | 5.68 µM (inactive) | 1.91 µM (inactive) | – | – | –
13 | Cn1nc(-c2ccccc2)c(C(=O)/C=C/c2ccc(F)cc2)c(N2CCOCC2)c1=O | 22.5 µM (inactive) | 13.6 µM (inactive) | – | > 10 µM (inactive) | 18.2 µM (inactive) | 17.7 µM (inactive) | 14.8 µM (inactive) | 16.8 µM (inactive) | 21.1 µM (inactive) | 22.5 µM (inactive) | 14.6 µM (inactive) | – | 15.8 µM (inactive) | 4.21 µM (inactive) | 25.7 µM (inactive) | > 10 µM (inactive) | – | – | –
